Test results taken from article PMC10478803, “Contributions of the N-terminal flanking residues of an antigenic peptide from the Japanese cedar pollen allergen Cry j 1 to the T-cell activation by HLA-DP5” (International Immunology, 2023).

Assays:
[1] = system: TCR(SU3–3)-TG40 and TCR(NM-4)-TG40 cells; assay: IL-2 production assay with HLA-DP5-expressing mDC1 cells; details: HLA-DP5-expressing mDC1s pulsed 3 h, coculture 18 h, ELISA; peptide 7 µg ml^−1 (Fig. 5A), 0.5–15 µg ml^−1 (Fig. 5B, C)
Protocol: The DPA1-stable cells were established by the transduction of mouse antigen-presenting dendritic cell line 1 (mDC1) cells with a retrovirus containing pMXs-Puro/DPA1 and selection with puromycin (5 μg ml^−1). The DPA1-stable cells were subsequently transduced with pMXs-IB/DPB1 and selected with blasticidin (5 μg ml^−1), to obtain DPA1- and DPB1-stable cells. […] The cell-surface expression levels of HLA-DP were analyzed with an EPICS-XL (Beckman Coulter) or BD FACSCalibur (BD Biosciences) flow cytometer. HLA-DP was stained with anti-HLA-DP (B7/21) (Leinco Technologies), and mouse IgG3 (6A3) (MBL), as the isotype control, was stained with phycoerythrin-conjugated anti-mouse IgG3 (Santa Cruz Biotechnology). mDC1 cells with certain uniform levels of HLA-DP5 expression were collected and used for the quantitative assays of cell-surface peptide-display and IL-2 production.
Human CD4^+ TG40 cells were infected with the recombinant retroviruses by using retronectin (Takara Bio), according to the manufacturer’s instructions.
HLA-DP5-expressing mDC1 cells (5.0 × 10^3 cells per well) were cultured with NF-pCj1 for 3 h in 96-well flat-bottom plates.
T-cell response to NF-pCj1 presented by mDC1s.

[2] = system: CD4^+ T-cell clones (SU3–2, SU3–3, NM-4, and NM-7); assay: Cytokine production by T-cell clones; format: cell-based, human; details: HLA-DP5-transfected K562 cells as APCs, 24 h, Bio-Plex
Protocol: Cloning of CD4^+ T cells was performed as described previously ([23]). A single, viable (7AAD^–), CD4^+, CFSE^dim cell was sorted into each well of a 96-well plate, which contained 100 μl of culture medium with feeder cells and cytokines, as described below. Irradiated (30 Gy) peptide-pulsed PBMCs (1.0 × 10^5) isolated from unrelated DPB1*05:01^+ donors were used as feeder cells in the cloning plates. Pooled human serum (5%) and IL-2 (100 U ml^−1) (Peprotech) were added at the indicated final concentrations to AIM-V medium (Life Technologies). Cells were fed every 7 days with fresh cytokine and peptide-pulsed PBMCs. Growing clones were identified by visual inspection, expanded into […] plates, and then tested for antigen specificity by ^3H-thymidine incorporation and cytokine production assays, using HLA-DP5 transfected K562 cells as antigen-presenting cells (APCs). […]
Fig. 4. […] HLA-restriction of T-cell clones was determined by addingvarious monoclonal antibodies (mAbs): anti-HLA-DR mAb (L243, BioLegend), anti-HLA-DQ mAb (SPV-L3, Abcam) or anti-HLA-DP mAb (B7/21, Abcam), at a final concentration of 10 μg ml^−1. […] After 24 h, culture supernatants were collected and cytokine levels were measured using the Bio-Plex system (Bio-Rad). […] The T-cell surface activation marker CD137 of TCR(SU3–3)-TG40 and TCR(NM-4)-TG40 (GFP^+ 7AAD^− gated) was analyzed by flow cytometry. […]

CD4^+ T cells = assay: CFSE assay of CD4^+ T-cell proliferation in PBMCs of HLA-DP5^+ CP patients; format: cell-based, human; details: PBMCs from HLA-DP5^+ CP patients
Protocol: Peripheral blood was obtained from HLA-DP5^+ CP patients. Peripheral blood mononuclear cells (PBMCs) were isolated by a density gradient technique, using Ficoll-Paque PLUS. The research protocol for collecting and using PBMCs from allergic patients was approved by the Institutional Review Board of Kyushu University.
The CFSE assay was performed as described previously ([24]). Briefly, PBMCs (1.0 × 10^7 cells ml^−1 in PBS) were incubated for 10 min with 5 μM CFSE (Molecular Probes). Staining was terminated by adding PBS containing 5% pooled human serum, and after the cells were washed three times in PBS containing 1% pooled human serum, they were resuspended in culture medium (RPMI-1640 containing 5% pooled human serum) at 2.0 × 10^6 cells ml^−1. Stained cells (2.0 × 10^6 cells well^−1, 1 ml) were cultured in 24-well plates with medium alone, pCj1 (final concentration, 10 μg ml^−1), or NF-pCj1 (10 μg ml^−1). After 7 days, the cells treated with each antigen were pooled, washed in PBS, and stained with anti-human CD4-allophycocyanin (IgG1, clone RPA-T4, BioLegend) and 7-amino-actinomycin D (7-AAD) (BD Pharmingen). Antigen-specific, viable CD4^+ T cells were identified as 7AAD^−, CD4^+, CFSE^dim cells, and the proliferation levels of these antigen-specific CD4^+ T cells were examined in each experiment.

## DKSMKVTVAFNQF [NF-pCj1]
[1]
  IL-2 production by TCR-TG40 cells (in words): produced IL-2 in response to NF-pCj1
[2]
  cytokine production on stimulation (in words): produced IL-5, IL-10, and IL-13
CD4^+ T cells
  CD4^+ T-cell proliferation and clone establishment (in words): many CD4^+ T cells proliferating
